In patent US20050049285A1, “Dichloropyridyl methyl cyanamidines” (priority 2000, published 2005):

Key:
[1] = system: Erysiphe graminis f. sp. hordei; test: Erysiphe-Test (barley)/induction of resistance; type: in vivo, Erysiphe graminis f. sp. hordei on barley; conditions: barley plants sprayed at 750 g/ha; inoculated 4 days after treatment; evaluated 7 days after inoculation; 0% = as control, 100% = no infection
Method: Erysiphe-Test (Barley)/Induction of Resistance
To produce a suitable preparation of active compound, 1 part by weight of active compound is mixed with the stated amounts of solvent and emulsifier, and the concentrate is diluted with water to the desired concentration.
To test for resistance-inducing activity, young cereal plants are sprayed with the preparation of active compound at the stated application rate. 4 days after the treatment, the plants are inoculated with spores of Erysiphe graminis f. sp. hordei. The plants are then placed in the greenhouse at 70% relative atmospheric humidity and a temperature of 18 C.
Evaluation is carried out 7 days after the inoculation. 0% means an efficacy which corresponds to that of the control, whereas an efficacy of 100% means that no infection is observed.

SMILES	Efficacy in % [1] [%]	melting point [°C]
N#C/N=C/NCc1cc(Cl)nc(Cl)c1 [drawing 9]	100	–
CC/C(=N\C#N)NCc1cc(Cl)nc(Cl)c1	80	–
C/C(=N\C#N)NCc1cc(Cl)nc(Cl)c1	95	–
N#C/N=C/NCc1cc(Cl)nc(Cl)c1 [Example 1, N′-cyano-N-[(2,6-dichloro-4-pyridinyl)methyl]imidoformamide]	–	160
